Assays:
Type in all cases: cell-based
Calu-1 [1] = assay: PROTAC activity at DDB1/CDK4 in human Calu-1 cells assessed as induction of CDK4 degradation at 400 nM incubated for 16 hrs relative to control
Calu-1 [2] = assay: PROTAC activity at DDB1/CDK4 in human Calu-1 cells assessed as induction of CDK4 degradation at 40 nM incubated for 16 hrs relative to control
Calu-1 [3] = assay: PROTAC activity at DDB1/CyclinD1 in human Calu-1 cells assessed as induction of cyclin D1 degradation at 40 nM incubated for 16 hrs relative to control
Calu-1 [4] = assay: PROTAC activity at DDB1/CyclinD1 in human Calu-1 cells assessed as induction of cyclin D1 degradation at 400 nM incubated for 16 hrs relative to control

Structure (SMILES) | Activity (Calu-1 [1]) [%] | Activity (Calu-1 [2]) [%] | Activity (Calu-1 [3]) [%] | Activity (Calu-1 [4]) [%]
CC(=O)c1c(C)c2cnc(Nc3ccc(N4CCN(CC(=O)NCCCCCCCNc5nc(C)ccc5C(=O)Nc5ccc(C)c(C6CC6)n5)CC4)cn3)nc2n(C2CCCC2)c1=O | > 80 | < 80 | > 80 | > 80
CC(=O)c1c(C)c2cnc(Nc3ccc(N4CCN(CC(=O)NCCCCCCCNc5nc(C)ccc5C(=O)Nc5ccc(N(C)C)nn5)CC4)cn3)nc2n(C2CCCC2)c1=O | > 80 | < 80 | > 80 | > 80
CNc1ccc(C(=O)Nc2ccc(N(C)C)nn2)c(NCCCCNC(=O)CCN2CCN(c3ccc(Nc4ncc5c(C)c(C(C)=O)c(=O)n(C6CCCC6)c5n4)nc3)CC2)n1 | < 80 | < 80 | > 80 | > 80
CC(=O)c1c(C)c2cnc(Nc3ccc(N4CCN(CC(=O)NCCCCCNc5nc(C6CC6)ccc5C(=O)Nc5ccc(N(C)C)nn5)CC4)cn3)nc2n(C2CCCC2)c1=O | > 80 | > 80 | > 80 | > 80
CNc1ccc(C(=O)Nc2ccc(N(C)C)nn2)c(NCCCCC(C)NC(=O)CN2CCN(c3ccc(Nc4ncc5c(C)c(C(C)=O)c(=O)n(C6CCCC6)c5n4)nc3)CC2)n1 (centres undefined) | > 80 | > 80 | > 80 | > 80
COc1ccc(NC(=O)c2ccc(C)nc2NCCCCCCCNC(=O)CN2CCN(c3ccc(Nc4ncc5c(C)c(C(C)=O)c(=O)n(C6CCCC6)c5n4)nc3)CC2)nn1 | > 80 | < 80 | > 80 | > 80
